Consider 5 compounds from BindingDB's records for doi:10.1016/j.bmcl.2006.10.030 (Paris-Sud University, 2007).

Usually Ki stands for a measure of affinity in units of concentration, obtained from inhibition or displacement. The low end stands for higher affinity, the high end for lower affinity.

Sequence of Triosephosphate isomerase (P60174 whole entry): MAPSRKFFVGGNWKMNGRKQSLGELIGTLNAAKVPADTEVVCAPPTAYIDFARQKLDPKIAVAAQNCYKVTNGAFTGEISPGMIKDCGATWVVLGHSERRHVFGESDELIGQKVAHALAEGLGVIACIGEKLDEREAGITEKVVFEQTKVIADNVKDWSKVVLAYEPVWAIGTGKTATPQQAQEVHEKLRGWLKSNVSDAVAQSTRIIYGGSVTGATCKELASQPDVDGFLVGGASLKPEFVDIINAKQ

This assay has as its target Triosephosphate isomerase (Homo sapiens, UniProt P60174). Description: Inhibition of triosephosphate isomerase.
As for `NC(CC(=O)NO)P(=O)(O)O` (stereo not given) [hydrogen [1-azaniumyl-2-(hydroxycarbamoyl)ethyl]phosphonate], the Ki was more than 500 µM.
For the compound `O=C(CCP(=O)(O)O)NO` [hydrogen 3-(hydroxyamino)-3-oxopropylphosphonate], the Ki was found to be 160 µM.
`NNC(=O)COP(=O)(O)O` [Phosphoric acid monohydrazinocarbonylmethyl ester] came in with a Ki of 111 µM.
The compound `O=C(COP(=O)(O)O)NO` [2-(hydroxyamino)-2-oxoethyl dihydrogen phosphate] gave a Ki of 3 µM.
Take `N=C(COP(=O)(O)O)NO` [Phosphoric acid mono-(N-hydroxycarbamimidoylmethyl) ester]: the Ki came out at 4.5 µM. This Ki is about 1.5-fold higher than that of the compound before.
